Assay results as given in patent publication US11773063B1, “Pharmaceutically acceptable salts and compositions thereof” (priority 2022, dated 2023).
Counter-ions that a name gives are not always drawn.

Legend:
[1] = Dynamic Vapor Sorption (DVS), salt screen and scale-up salts; assay type: physicochemical; details: for moisture absorption at 70% RH / moisture absorption at 80% RH / water uptake up to 60% RH: first sorption isotherm; for moisture absorption at 70% RH / moisture absorption at 80% RH / water uptake up to 60% RH / deliquescence during DVS / hygroscopicity class: 25° C.; for deliquescence during DVS: high RH; for hygroscopicity class: DVS
Protocol: Dynamic Vapor Sorption (DVS)
DVS analyses were performed on TA Instrument DVS Q5000. Samples were added to a pre-tared metallised quartz crucible and run at 25° C. from 40% RH to 90% RH, down to zero and back to 40%. This cycle was repeated in increments of 10% RH.

[2] = Thermo-Gravimetric Analysis (TGA), thermal stability; details: for thermal stability up to (TGA): 10° C./min, nitrogen
Protocol: Thermo—Gravimetric Analysis (TGA)
TGA thermograms were obtained with a TA Instrument Discovery 550 in Al pans. The heating rate used was 10° C./min linear ramp from 25 to 400° C. with a nitrogen purging at a rate of 60 ml/min. TGA thermograms were analysed using TRIOS software.

[3] = Storage at 40° C./75% RH and 25° C./97% RH for 7 days, XRPD and HPLC (Example 3); assay type: physicochemical
Protocol: FIG. 128. XRPD diffractogram overlay of 5-MeO-DMT Phosphate Pattern 1 before and after storage at 25° C./97% RH and 40° C./75% RH for 7 days.
FIG. 139. XRPD diffractogram overlay of 5-MeO-DMT Tartrate Pattern 1 before and after storage at 25° C./97% RH and 40° C./75% RH for 7 days.
The sample is classed as slightly hygroscopic with a total reversible mass change of 0.3 wt. % between 0-90% RH. The DVS isotherm and DVS kinetic plot can be seen in FIGS. 124 and 125, respectively. The solid form was unchanged after a double-cycle experiment, the XRPD analysis confirming this can be seen in FIG. 126.
The sample is classed as slightly hygroscopic with a total reversible mass change of 0.6 wt. % between 0-90% RH (FIG. 135). The solid-form was unchanged after the double-cycle experiment (FIG. 136).

[4] = DVS double-cycle experiment (Example 3); assay type: physicochemical
[5] = Polymorph assessment, slurry maturation in 10 solvents between 5 and 50° C.; assay type: physicochemical; set-up: key to Observation at 50° C. / Observation at 5° C.: ✓ = solution; ✓/X = turbid solution; X = suspension; details: 5-MeO-DMT phosphate, input DR-2186-45-01 (PHO Pattern 1+Extra Peaks), 20 mg in 10 volumes; solvent per sample: -01 MeOH, -02 Acetone, -03 CAN, -04 IPA:Water 9:1, -05 2-MeTHF, -06 EtOAc, -07 Ethanol, -08 Toluene, -09 MEK, -10 TBME
Protocol: (§1) DR-2186-45-01 (20 mg, PHO Pattern 1+Extra Peaks) was weighed into 10 HPLC vials. To this was added 10 volumes (200 μL) of solvent, a stirrer bar and the samples heated to 50° C. on a Polar Bear heat/cool block (400 RPM). After holding at 50° C. for 30 minutes and observation was made and the samples cooled to 5° C. where a further observation was made. All samples were than subjected to heat/cool cycles between 5 and 50° C. holding for 4 hours at each temperature for 24 hours.
A polymorph assessment was carried out in 10 different solvents using PHO Pattern 1+extra peaks as the input material, maturating a slurry of the salt between 5° C. and 50° C. for 24 hours. The results of the XRPD analysis of the samples can be seen in FIG. 118. The isolated solid was the same as the input material in all cases other than MeOH.
as §1, with “DR-2186-46-01” for “DR-2186-45-01”, “TAR” for “PHO”, “1)” for “1+Extra Peaks)”
A polymorph assessment was carried out in 10 different solvents, maturating a slurry of the salt between 5° C. and 50° C. for 24 hours.

[6] = assay type: physicochemical; details: 40° C./75% RH, three days
Protocol: Physical Stability of Salts
Physical stability stress tests were conducted on generated crystalline salts at controlled temperature and relative humidity. The powder samples were stored at 40° C./75% RH for three days. After this time samples were analysed by XRPD to see whether the physical state of salts changed during the storage.

[7] = Solubility assessment in four different media; assay type: physicochemical; details: four media: SNF, pH 1.2, pH 4.5 and pH 6.8 media, 37 °C, aqueous buffer, thermodynamic from solid; four different media
Protocol: Solubility assessments of 5-MeO-DMT oxalate, hydrobromide fumarate and benzoate were performed in four different media: […]

[8] = Polymorphism screen of hydrochloride and benzoate salts: thermal cycling, evaporation, antisolvent addition, cooling (XRPD); assay type: physicochemical
Protocol: Twenty five of the lyophilised samples were treated with solvent and thermally cycled between ambient and 40° C. with four hours spent under each condition. After three days and solids were isolated by centrifuge filtration and analysed by XRPD.
(§2) Twelve samples of the lyophilised material were treated with a minimal volume (ca 0.5 ml) of warm solvent, syringe filtered through a 0.22 µm filter and added to a clean HPLC vial and allowed to evaporate at RT. The solvents used and XRPD results following evaporation are detailed in the Table below:
as §2, with “micrometre” for “µm”
For antisolvent additions thirteen samples of the lyophilised material were dissolved in a small amount of hot solvent (^˜0.5 ml). […] A large excess of antisolvent was then added, the vials sealed. After storage at RT overnight, and samples where no solid had been produced were first cooled to 4° C. for ˜24 hrs, and again if no solid was produced, they were cooled to −18° C. Any solids were isolated by centrifuge filtration and analysed by XRPD.
For the cooling experiments twelve samples of the lyophilised material were dissolved in a small amount of hot solvent (^˜[…]) and syringe filtered through a 0.22 μm filter into a clean HPLC vial. Samples were allowed to cool to RT, and if no solid was produced to 4° C. and then to −18° C. Solids were isolated by centrifuge filtration and analysed by XRPD.

## COc1ccc2[nH]cc(CCN(C)C)c2c1 [Benzenesulfonate salt, 5-MeO-DMT benzenesulfonate]
[1]
  moisture absorption at 70% RH: 7 % w/w
  moisture absorption at 80% RH: 14 % w/w
  water uptake up to 60% RH: 1.2 % w/w
  deliquescence during DVS: begins to deliquesce
[2]
  thermal stability up to (TGA): 250 °C

## COc1ccc2[nH]cc(CCN(C)C)c2c1.O=P(O)(O)O [DR-2186-48-01]
[3]; 25° C./97% RH
  Static Storage 7 days - 25° C./97% RH, XRPD: XRPD - PHO Pattern 1
[3]; 25° C./97% RH, HPLC purity
  Static Storage 7 days - 25° C./97% RH, HPLC: HPLC - 98.0%
[3]; 40° C./75% RH
  Static Storage 7 days - 40° C./75% RH, XRPD: XRPD - PHO Pattern 1
[3]; 40° C./75% RH, HPLC purity
  Static Storage 7 days - 40° C./75% RH, HPLC: HPLC - 98.1%
[2]
  TGA decomposition onset: 130-170 °C Decomposition onset from 180 °C
[2]; 130-170° C.
  TGA further mass lost during the melt: further 0.95% (0.1 mol eq. MeOH) was lost during the melt,
[2]; from 40-125° C.
  TGA mass loss: 0.4 wt. % (0.04 mol. eq. MeOH) mass loss from 40-125 °C A
[4]
  GVS hygroscopicity class (European Pharmacopeia definitions): slightly hygroscopic (based on European Pharmacopeia (Pharmaceuticals that pick up between 0.2% and 2.0% moisture at 80% RH are considered slightly hygroscopic)
[4]; from 0-90% RH
  GVS total mass change as mol eq. water: 0.06 mol eq. water
[4]; from 0-90% RH, double cycle
  GVS total mass change: 0.34 wt. %

## COc1ccc2[nH]cc(CCN(C)C)c2c1.O=P(O)(O)O [DR-2186-52-02]
[5]
  Observation at 5° C.: X
  Observation at 50° C.: X

## COc1ccc2[nH]cc(CCN(C)C)c2c1.O=C(O)CC(O)C(=O)O [Malate salt, 5-MeO-DMT malate]
[6]
  crystalline form after storage (XRPD): conversion to a “gum” material
[2]
  thermal stability up to (TGA): around 170 °C

## COc1ccc2[nH]cc(CCN(C)C)c2c1 [Phosphate Pattern 1, 5-MeO-DMT phosphate]
[4]; DVS
  total reversible mass change between 0-90% RH: 0.3 wt. %

## COc1ccc2[nH]cc(CCN(C)C)c2c1 [Phosphate salt, 5-MeO-DMT phosphate]
[1]
  change of crystalline form during the DVS experiment (DVS / post-DVS XRPD): no evidence of form change
[6]
  crystalline form after storage (XRPD): did not undergo any transformation

## COc1ccc2[nH]cc(CCN(C)C)c2c1 [Tartrate salt, 5-MeO-DMT tartrate]
[1]
  change of crystalline form during the DVS experiment (DVS / post-DVS XRPD): did not undergo any solid form transformation
  hygroscopicity class: moderately hygroscopic (Pharmaceuticals that pick up between 2.0% and 15.0% moisture at 80% RH are considered moderately hygroscopic)
[1]; listed as tartrate salt
  hygroscopicity class: moderately hygroscopic (Pharmaceuticals that pick up between 2.0% and 15.0% moisture at 80% RH are considered moderately hygroscopic)
[6]
  crystalline form after storage (XRPD): No change in the crystalline form
[2]
  thermal stability up to (TGA): around 170 °C

## COc1ccc2[nH]cc(CCN(C)C)c2c1 [Tosylate salt, 5-MeO-DMT tosylate]
[1]
  change of crystalline form during the DVS experiment (DVS / post-DVS XRPD): did not undergo any solid-state changes
  hygroscopicity class: slightly hygroscopic (Pharmaceuticals that pick up between 0.2% and 2.0% moisture at 80% RH are considered slightly hygroscopic)
[6]
  crystalline form after storage (XRPD): identical XRPD pattern as the input material

## COc1ccc2[nH]cc(CCN(C)C)c2c1.O=C(O)c1ccccc1 [benzoate salt, 5-MeO-DMT benzoate]
[7]
  solubility: ≥ 100 mg/mL
[8]; evaporation at RT of lyophilised benzoate salt from 1-PrOH (DJP2202-010-02)
  XRPD Result: Oil
[8]; evaporation at RT of lyophilised benzoate salt from EtOH (DJP2202-010-05)
  XRPD Result: Oil
[8]; evaporation at RT of lyophilised benzoate salt from IPA (DJP2202-010-06)
  XRPD Result: Pattern 4
[8]; evaporation at RT of lyophilised benzoate salt from IPAc (DJP2202-010-10)
  XRPD Result: Pattern 2
[8]; evaporation at RT of lyophilised benzoate salt from MEK (DJP2202-010-11)
  XRPD Result: Pattern 4
[8]; evaporation at RT of lyophilised benzoate salt from MIBK (DJP2202-010-04)
  XRPD Result: Oil
[8]; evaporation at RT of lyophilised benzoate salt from MeCN (DJP2202-010-12)
  XRPD Result: Pattern 4
[8]; evaporation at RT of lyophilised benzoate salt from THF (DJP2202-010-07)
  XRPD Result: Pattern 4
[8]; evaporation at RT of lyophilised benzoate salt from chlorobenzene (DJP2202-010-09)
  XRPD Result: Pattern 4
[8]; evaporation at RT of lyophilised benzoate salt from dioxane (DJP2202-010-08)
  XRPD Result: Pattern 4

## COc1ccc2[nH]cc(CCN(C)C)c2c1 [glycolate salt, 5-MeO-DMT glycolate]
[1]
  moisture absorption at 70% RH: 11 % w/w
  moisture absorption at 80% RH: 33 % w/w
  water uptake up to 60% RH: 2.3 % w/w
  deliquescence during DVS: begins to deliquesce
[2]
  thermal stability up to (TGA): around 155 °C

## COc1ccc2[nH]cc(CCN(C)C)c2c1.Cl [hydrochloride salt, 5-MeO-DMT hydrochloride]
[2]
  thermal stability up to (TGA): ~235 °C
[8]; evaporation at RT of lyophilised hydrochloride salt from 1-PrOH (DJP2202-011-02)
  XRPD Results: Pattern 1
[8]; evaporation at RT of lyophilised hydrochloride salt from EtOH (DJP2202-011-05)
  XRPD Results: Pattern 1
[8]; evaporation at RT of lyophilised hydrochloride salt from IPA (DJP2202-011-06)
  XRPD Results: Pattern 1
[8]; evaporation at RT of lyophilised hydrochloride salt from MEK (DJP2202-011-11)
  XRPD Results: Pattern 1
[8]; evaporation at RT of lyophilised hydrochloride salt from MeCN (DJP2202-011-12)
  XRPD Results: Oil
